Measurements as given in article PMC9511493, “2-(Fluoromethoxy)-4′-(S-methanesulfonimidoyl)-1,1′-biphenyl (UCM-1306), an Orally Bioavailable Positive Allosteric Modulator of the Human Dopamine D1 Receptor for Parkinson’s Disease” (Journal of Medicinal Chemistry, 2022).

Key:
human D1R [1] = target: T1, human D1R (Homo sapiens, UniProt P21728); experiment: potentiator-mode cAMP assay (HTRF) in SK-N-MC neuroblastoma cells endogenously expressing human D1R; assay type: cell-based; conditions: for Emax: SK-N-MC, read-out: % maximum increase (efficacy over DA EC70); for EC50: potency of the compound at the DA EC70 concentration
T1 construct: endogenously expressed human D1R in the SK-N-MC cell line (ATCC); host or cells: SK-N-MC human neuroblastoma cells
Description: An in-house chemical library of 250 compounds was screened using an in vitro assay measuring accumulation of cAMP in a human neuroblastoma SK-N-MC cell line stably expressing physiological levels of the D1R but not the D5R.[41] To assess allosteric modulation of the D1R, cells were treated with a fixed concentration of the test compounds (10 μM) for 15 min and then co-incubated with increasing concentrations of the endogenous agonist DA. The cAMP concentration was quantified by homogeneous time-resolved fluorescence energy transfer (HTRF) and the effect of each compound on the DA concentration–response curve was measured.
The PAM efficacy was measured as the percentage of increase over DA EC70 and the potency as the EC50 observed in the concentration–response curve.
Functional studies at human D1 and D2 receptors were carried out in endogenously expressed human D1R in the SK-N-MC cell line (ATCC), and recombinant human D2R stably transfected in an in-house CHO cell line. Cells were thawed and seeded into a black 96-well plate (1 × 10^4 cells/well for SK-N-MC cell line, 5 × 10^3 cells/well for CHO cell line) in Opti-MEM containing 500 μM IBMX (3-isobutyl-1-methylxanthine).

human D1R [2] = target: T1, human D1R; experiment: potentiator-mode cAMP assay (HTRF) in SK-N-MC neuroblastoma cells endogenously expressing human D1R; assay type: cell-based; conditions: no DA
[3] = test system: reserpinized C57BL/6 mice; experiment: locomotor activity in reserpinized mice; assay type: in vivo, mouse; conditions: reserpine 2.5 mg/kg sc; 26 30 mg/kg po; L-DOPA 100 or 400 mg/kg ip
Description: The study was carried out in male C57BL/6 wild-type (22–25 g) mice that were acclimatized for 5 days. Animals were randomized based on body weight into six groups (G1 to G6), ten animals per group (n = 10), being group G1 the naïve control group. Animals were fed with standard diet ad libitum. Animals were dosed with subcutaneous administration of reserpine (2.5 mg/kg in DMSO/saline) and after 20 h they were treated with a vehicle (10 mL/kg, po), compound 26 (30 mg/kg, po), L-DOPA (100 or 400 mg/kg, ip) + carbidopa (100 mg/kg, ip) and/or their combination, as indicated in Figure 7. The vehicle employed for compound 26 administration was 5% NMP + 5% solutol HS-15 + 90% normal saline. L-DOPA and carbidopa were administered 30 min prior to start of locomotor activity recording. Compound 26 was administered and 15 min later, mice were placed in the locomotor activity cage to measure the locomotor activity for 60 min (total distance travelled) using ALL Maze version 0.5 automated software enabled with video tracking system. After the activity sessions, raw data were reduced using ALL Maze 5.0 software and Microsoft Excel. Statistical analysis was done with GraphPad Prism-5 using one way ANOVA followed by Dunnett’s test/Tukey’s post hoc test and/or two-way ANOVA followed by Bonferroni post hoc test. Data were considered statistically significant, if P value was less than 0.05.

[4] = concentration–response curve of the compound over DA EC70

T1 sequence (P21728 whole entry): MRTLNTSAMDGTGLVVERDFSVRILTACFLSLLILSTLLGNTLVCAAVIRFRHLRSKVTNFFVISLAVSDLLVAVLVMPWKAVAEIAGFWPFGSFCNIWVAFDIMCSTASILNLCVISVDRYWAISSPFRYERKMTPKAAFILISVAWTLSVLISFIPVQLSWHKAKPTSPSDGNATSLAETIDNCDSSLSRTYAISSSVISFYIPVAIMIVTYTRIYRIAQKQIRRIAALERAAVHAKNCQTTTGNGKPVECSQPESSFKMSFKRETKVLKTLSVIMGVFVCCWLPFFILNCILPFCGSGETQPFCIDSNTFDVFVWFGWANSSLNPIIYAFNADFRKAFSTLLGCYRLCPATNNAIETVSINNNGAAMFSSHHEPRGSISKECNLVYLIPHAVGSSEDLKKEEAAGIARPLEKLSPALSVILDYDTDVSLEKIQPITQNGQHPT

| Emax (human D1R [1]; [4]) [%] | EC50 (human D1R [1]) [µM] | Structure (SMILES) | also measured |
| --- | --- | --- | --- |
| 50 ± 7 | 30.2 ± 2.4 | CCS(=N)(=O)c1ccc(-c2ccccc2OCF)cc1 (stereo not shown) [Compound 25] |  |
| 28 ± 8 | 1.26 ± 0.7 | CNS(=O)(=O)c1ccc(-c2ccccc2OCF)cc1 [Compound 19] |  |
| 101 ± 10 | 21.8 ± 3.6 | O=Cc1ccc(-c2ccccc2SC(F)F)cc1 [Compound 10, 2′-[(Difluoromethyl)sulfanyl][1,1′-biphenyl]-4-carbaldehyde] | melting point: 46 to 47 °C |
| 62 | 18.5 ± 2.7 | O=Cc1ccc(-c2ccccc2OC(F)F)cc1 [Compound 7] | % maximum increase (efficacy over DA EC70) (human D1R [1]; [4]): 62 ± 10% |
| 42 ± 7 | 4.93 ± 1.2 | NS(=O)(=O)c1ccc(-c2ccccc2OCF)cc1 [Compound 18] |  |
| 33 ± 3 | 15.9 ± 2.7 | CN=S(C)(=O)c1ccc(-c2ccccc2OCF)cc1 (stereo not shown) [Compound 27] |  |
| 37 ± 5 | 2.3 ± 0.4 | O=Cc1ccc(-c2ccc(OC(F)F)cc2)cc1 [Compound 5] |  |

The next lines start with the compound.

| Structure (SMILES) | Emax (human D1R [1]; [4]) [%] | EC50 (human D1R [1]) [µM] | also measured |
| --- | --- | --- | --- |
| CS(=O)(=O)c1ccc(-c2ccccc2OCF)cc1 [Compound 20] | 30 ± 8 | 13.1 ± 2.8 |  |
| C[S+]([O-])c1ccc(-c2ccccc2OCF)cc1 (stereo not shown) [Compound 23] | 73 ± 6 | 21.7 ± 5.8 |  |
| C[S@](=N)(=O)c1ccc(-c2ccccc2OCF)cc1 [(S)-26, (S)-2-(Fluoromethoxy)-4′-(S-methanesulfonimidoyl)-1,1′-biphenyl] |  |  | cAMP response in the absence of DA (agonist activity) (human D1R [2]): no agonist activity |
| N[C@@H](Cc1ccc(O)c(O)c1)C(=O)O [L-DOPA, reference compound] |  |  | recovery of decreased locomotor activity, substance alone [3]: small recovery of decreased locomotor activity |
| O=Cc1ccc(-c2cccc(OC(F)F)c2)cc1 [Compound 6] | 35 ± 7 | 10.8 ± 1.6 |  |
| C[S@@](=N)(=O)c1ccc(-c2ccccc2OCF)cc1 [Compound (R)-26, (R)-2-(Fluoromethoxy)-4′-(S-methanesulfonimidoyl)-1,1′-biphenyl] |  |  | cAMP response in the absence of DA (agonist activity) (human D1R [2]): no agonist activity |
